pIC50: −log10 of the molar value. One block for each compound: values may come before it.
Experiments:
CXCR3 = CXCR3 (Homo sapiens (Human), UniProt P49682); assay: Receptor internalization assay; type: cell-based; details: human whole blood; final CXCL10 concentration 9 nM; 30 min 37° C.; CXCR3 cell surface expression on CD3 positive cells, flow cytometer; read-out: Internalization IC50
Procedure: B): Receptor Internalization Assay:
Stock solutions of test compounds are made up at a concentration of 10 mM in DMSO, and serially diluted in PBS containing 0.5% BSA to concentrations required for inhibition dose response curves. Diluted compounds are then mixed with an equal volume of CXCL10 (Peprotech) diluted in PBS. Anticoagulated venous human whole blood is added to the mixture, which is then incubated in a CO2 incubator at 37° C. to allow for ligand mediated receptor internalization (final CXCL10 concentration is 9 nM). After 30′, the blood is mixed with fluorescently labeled CXCR3 and CD3 specific antibodies (Becton Dickinson) and incubated on ice for 10 minutes. Samples are then mixed with BD FACS Lysing Solution (Becton Dickinson) in order to eliminate red blood cells. After washing the cells with PBS containing 0.5% BSA, the samples are then analyzed in a flow cytometer (FACS Canto II, Becton Dickinson). For data analysis using FACSDiva software (Becton Dickinson), the mean fluorescence corresponding to CXCR3 cell surface expression was determined on CD3 positive cells. The program GraphPad Prism is used to fit the data to a single site dose response curve and to calculate IC50 values.

human CXCR3A = human CXCR3A (Homo sapiens (Human), UniProt P49682); assay: FLIPR assay; type: cell-based; details: CHO-K1 cells expressing the human CXCR3A coupled to Galpha(16); CXCL10 agonist 20 nM; Fluo-4-AM fluorescence; mean values if determined several times
Procedure: The bioactivity of compounds is tested in a fluorometric imaging plate reader (FLIPR: Molecular Devices) using engineered CHO-K1 cells expressing the human CXCR3A coupled to a G protein (Galpha(16)). Cells are plated the day prior to bioassay in F12 medium supplemented with 10% FBS and G418 and hygromycin antibiotics to maintain recombinant selection. At the day of bioassay, cells are washed and dye loaded for one hour with Fluo-4-AM (Invitrogen) in Hanks Balanced Salt Solution (Invitrogen), buffered with 20 mM Hepes at pH 7.4 and sodium bicarbonate (0.015%), containing 5 mM probenecid. […] Cells are washed free of excess dye and 60 microliter of wash buffer is added. Stock solutions of test compounds are made up at a concentration of 10 mM in DMSO, and serially diluted in dilution buffer to concentrations required for inhibition dose response curves. After a 10 minute incubation period at 37° C., 10 microliters of each compound dilution are transferred from a compound plate to the plate containing the recombinant cells in the FLIPR instrument according to the manufacturer's instructions. Following basal readings, 10 microliter CXCL10 agonist at a concentration of 20 nM (from Peprotech) is added, again using the FLIPR instrument. Changes in fluorescence are monitored before and after addition of the test compounds. Emission peak values above base level after CXCL10 addition are exported after base line subtraction. The program XLfit is used to fit the data to a single site dose response curve and to calculate IC50 values.

Sequence of CXCR3 (P49682 whole entry): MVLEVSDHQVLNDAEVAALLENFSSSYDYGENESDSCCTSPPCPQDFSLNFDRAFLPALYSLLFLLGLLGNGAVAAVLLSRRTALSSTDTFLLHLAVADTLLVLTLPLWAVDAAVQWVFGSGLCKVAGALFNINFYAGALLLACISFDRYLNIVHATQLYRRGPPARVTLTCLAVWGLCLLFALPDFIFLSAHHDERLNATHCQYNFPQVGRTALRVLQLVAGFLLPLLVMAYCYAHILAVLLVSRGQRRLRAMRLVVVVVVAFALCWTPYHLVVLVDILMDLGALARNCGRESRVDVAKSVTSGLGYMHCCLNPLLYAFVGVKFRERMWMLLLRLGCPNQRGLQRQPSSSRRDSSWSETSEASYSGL
Sequence of human CXCR3A (P49682 whole entry): as above

SMILES: O=C(Cn1cnc2ccccc21)N1CCN(c2scnc2-c2nc3ccccc3[nH]2)CC1 [Example 1, 2-Benzoimidazol-1-yl-1-{4-[4-(1H-benzoimidazol-2-yl)-thiazol-5-yl]-piperazin-1-yl}-ethanone]
pIC50 (CXCR3): 5.51 | pIC50 (human CXCR3A): 7.52

SMILES: Cc1nc2ccccc2n1CC(=O)N1CCN(c2scnc2-c2nc3ccccc3[nH]2)CC1 [Example 2, 1-{4-[4-(1H-Benzoimidazol-2-yl)-thiazol-5-yl]-piperazin-1-yl}-2-(2-methyl-benzoimidazol-1-yl)-ethanone]
pIC50 (CXCR3): 5.47 | pIC50 (human CXCR3A): 6.70

SMILES: Cn1c(=O)n(CC(=O)N2CCN(c3scnc3-c3nc4ccccc4[nH]3)CC2)c2ccccc21 [Example 3, 1-(2-{4-[4-(1H-Benzoimidazol-2-yl)-thiazol-5-yl]-piperazin-1-yl}-2-oxo-ethyl)-3-methyl-1,3-dihydro-benzoimidazol-2-one]
pIC50 (CXCR3): 5.92 | pIC50 (human CXCR3A): 7.82

SMILES: O=C(Cn1ccc2ccccc21)N1CCN(c2scnc2-c2nc3ccccc3[nH]2)CC1 [Example 4, 1-{4-[4-(1H-Benzoimidazol-2-yl)-thiazol-5-yl]-piperazin-1-yl}-2-indol-1-yl-ethanone]
pIC50 (CXCR3): 5.58 | pIC50 (human CXCR3A): 7.82

SMILES: C[C@@H]1CN(c2scnc2-c2nc3ccccc3[nH]2)CCN1C(=O)Cc1c[nH]c2ccc(Cl)cc12 [Example 127, 1-{(R)-4-[4-(1H-Benzoimidazol-2-yl)-thiazol-5-yl]-2-methyl-piperazin-1-yl}-2-(5-chloro-1H-indol-3-yl)-ethanone]
pIC50 (human CXCR3A): 6.31

SMILES: C[C@@H]1CN(c2scnc2-c2nc3ccccc3[nH]2)CCN1C(=O)Cc1nc2cc(Cl)ccc2[nH]1 [Example 129, 1-{(R)-4-[4-(1H-Benzoimidazol-2-yl)-thiazol-5-yl]-2-methyl-piperazin-1-yl}-2-(5-chloro-1H-benzoimidazol-2-yl)-ethanone]
pIC50 (human CXCR3A): 6.96

SMILES: C[C@@H]1CN(c2scnc2-c2nc3ccccc3[nH]2)CCN1C(=O)Cc1csc2ccc(Cl)cc12 [Example 134, 1-{(R)-4-[4-(1H-Benzoimidazol-2-yl)-thiazol-5-yl]-2-methyl-piperazin-1-yl}-2-(5-chloro-benzo[b]thiophen-3-yl)-ethanone]
pIC50 (human CXCR3A): 6.94

SMILES: C[C@@H]1CN(c2scnc2-c2nc3ccccc3[nH]2)CCN1C(=O)Cc1ccc2c(c1)CCO2 [Example 136, 1-{(R)-4-[4-(1H-Benzoimidazol-2-yl)-thiazol-5-yl]-2-methyl-piperazin-1-yl}-2-(2,3-dihydro-benzofuran-5-yl)-ethanone]
pIC50 (human CXCR3A): 7.59

SMILES: C[C@@H]1CN(c2scnc2-c2nc3ccccc3[nH]2)CCN1C(=O)Cn1ccc2ncc(Cl)nc21 [Example 140, 1-{(R)-4-[4-(1H-Benzoimidazol-2-yl)-thiazol-5-yl]-2-methyl-piperazin-1-yl}-2-(3-chloro-pyrrolo[2,3-b]pyrazin-5-yl)-ethanone]
pIC50 (human CXCR3A): 8.22

SMILES: C[C@@H]1CN(c2scnc2-c2nc3ccccc3[nH]2)CCN1C(=O)CN1C(=O)C(=O)c2ccccc21 [Example 157, 1-(2-{(R)-4-[4-(1H-Benzoimidazol-2-yl)-thiazol-5-yl]-2-methyl-piperazin-1-yl}-2-oxo-ethyl)-1H-indole-2,3-dione]
pIC50 (human CXCR3A): 8.40

Other lines, results leading:

pIC50 (CXCR3): 5.39 | pIC50 (human CXCR3A): 7.26
SMILES: CC(O)c1nc(-c2nc3ccccc3[nH]2)c(N2CCN(C(=O)Cn3ccc4cccnc43)CC2)s1 (racemic) [Example 43, rac-1-{4-[4-(1H-Benzoimidazol-2-yl)-2-(1-hydroxy-ethyl)-thiazol-5-yl]-piperazin-1-yl}-2-pyrrolo[2,3-b]pyridin-1-yl-ethanone]

pIC50 (human CXCR3A): 8.00
SMILES: C[C@@H]1CN(c2scnc2-c2nc3ccccc3[nH]2)CCN1C(=O)Cc1c[nH]c2ccccc12 [Example 124, 1-{(R)-4-[4-(1H-Benzoimidazol-2-yl)-thiazol-5-yl]-2-methyl-piperazin-1-yl}-2-(1H-indol-3-yl)-ethanone]

pIC50 (human CXCR3A): 7.15
SMILES: C[C@@H]1CN(c2scnc2-c2nc3ccccc3[nH]2)CCN1C(=O)Cc1cn(C)c2ccccc12 [Example 125, 1-{(R)-4-[4-(1H-Benzoimidazol-2-yl)-thiazol-5-yl]-2-methyl-piperazin-1-yl}-2-(1-methyl-1H-indol-3-yl)-ethanone]

pIC50 (human CXCR3A): 7.17
SMILES: COc1ccc2[nH]cc(CC(=O)N3CCN(c4scnc4-c4nc5ccccc5[nH]4)C[C@H]3C)c2c1 [Example 126, 1-{(R)-4-[4-(1H-Benzoimidazol-2-yl)-thiazol-5-yl]-2-methyl-piperazin-1-yl}-2-(5-methoxy-1H-indol-3-yl)-ethanone]

pIC50 (human CXCR3A): 7.33
SMILES: C[C@@H]1CN(c2scnc2-c2nc3ccccc3[nH]2)CCN1C(=O)Cc1c[nH]c2ccc(F)cc12 [Example 128, 1-{(R)-4-[4-(1H-Benzoimidazol-2-yl)-thiazol-5-yl]-2-methyl-piperazin-1-yl}-2-(5-fluoro-1H-indol-3-yl)-ethanone]

pIC50 (human CXCR3A): 8.10
SMILES: Cc1ccc2onc(CC(=O)N3CCN(c4scnc4-c4nc5ccccc5[nH]4)C[C@H]3C)c2c1 [Example 131, 1-{(R)-4-[4-(1H-Benzoimidazol-2-yl)-thiazol-5-yl]-2-methyl-piperazin-1-yl}-2-(5-methyl-benzo[d]isoxazol-3-yl)-ethanone]

pIC50 (human CXCR3A): 8.22
SMILES: C[C@@H]1CN(c2scnc2-c2nc3ccccc3[nH]2)CCN1C(=O)Cc1csc2ccccc12 [Example 133, 2-Benzo[b]thiophen-3-yl-1-{(R)-4-[4-(1H-benzoimidazol-2-yl)-thiazol-5-yl]-2-methyl-piperazin-1-yl}-ethanone]

pIC50 (human CXCR3A): 7.06
SMILES: COc1ccc2c(CC(=O)N3CCN(c4scnc4-c4nc5ccccc5[nH]4)C[C@H]3C)coc2c1 [Example 135, 1-{(R)-4-[4-(1H-Benzoimidazol-2-yl)-thiazol-5-yl]-2-methyl-piperazin-1-yl}-2-(6-methoxy-benzofuran-3-yl)-ethanone]

pIC50 (human CXCR3A): 7.96
SMILES: C[C@@H]1CN(c2scnc2-c2nc3cc(Cl)ccc3[nH]2)CCN1C(=O)CN1CCc2ccccc21 [Example 145, 1-{(R)-4-[4-(5-Chloro-1H-benzoimidazol-2-yl)-thiazol-5-yl]-2-methyl-piperazin-1-yl}-2-(2,3-dihydro-indol-1-yl)-ethanone]

pIC50 (human CXCR3A): 7.19
SMILES: C[C@@H]1CN(c2scnc2-c2nc3ccccc3[nH]2)CCN1C(=O)Cn1cccc2oc(=O)nc1-2 [Example 156, 4-(2-{(R)-4-[4-(1H-Benzoimidazol-2-yl)-thiazol-5-yl]-2-methyl-piperazin-1-yl}-2-oxo-ethyl)-4H-oxazolo[4,5-b]pyridin-2-one]

pIC50 (human CXCR3A): 7.00
SMILES: C[C@@H]1CN(c2sc(CCC(=O)O)nc2-c2nc3ccccc3[nH]2)CCN1C(=O)Cn1ccc2cccnc21 [Example 224, 3-{4-(1H-Benzoimidazol-2-yl)-5-[(R)-3-methyl-4-(2-pyrrolo[2,3-b]pyridin-1-yl-acetyl)-piperazin-1-yl]-thiazol-2-yl}-propionic acid]

pIC50 (human CXCR3A): 7.52
SMILES: Cc1nc(C)n(CC(=O)N2CCN(c3sc(C(F)(F)F)nc3-c3nc4ccc(N5CCCC5=O)cc4[nH]3)C[C@H]2C)n1 [Example 235, 1-[2-(5-{(R)-4-[2-(3,5-Dimethyl-[1,2,4]triazol-1-yl)-acetyl]-3-methyl-piperazin-1-yl}-2-trifluoromethyl-thiazol-4-yl)-3H-benzoimidazol-5-yl]-pyrrolidin-2-one]

pIC50 (human CXCR3A): 5.52
SMILES: O=C(Cn1cnc2cccnc21)N1CCN(c2ncsc2-c2nc3ccccc3[nH]2)CC1 [compound 114, 1-{4-[5-(1H-Benzoimidazol-2-yl)-thiazol-4-yl]-piperazin-1-yl}-2-imidazo[4,5-b]pyridin-3-yl-ethanone, reference compound]
